According to patent US20260250250A1, “3-(SULPHONYL OR SULFONIMIDOYL)PROP-2-EN-1-YL]-2-OXO-1,2-DIHYDROPYRIDINE-3-CARBOXAMIDE DERIVATIVES” (Flinder Therapeutics B.V., priority 2022, published 2026):

Key:
NF-κB signaling pathway = assay: Cell-based dual luciferase NF-κB reporter assay (HEK293 cells, TNF stimulated); settings: Homo sapiens, HEK293
Method in brief: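 HEK293 cells transfected with Firefly luciferase and NF-κB-response-element NanoLuc plasmids; compounds at 100–0.005 µM in 1% DMSO. Cells stimulated with 2.5 ng/mL TNF 30 min after compound addition. Firefly and NanoLuc activities read after 6 h by Nano-Glo dual-luciferase detection.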

[1] = biological target: T1, human E3 ubiquitin-protein ligase RNF31 (HOIP) (Homo sapiens, UniProt Q96EP0); assay: Cell-free HTRF-based HOIP inhibition assay; format: biochemical
T1 sequence (Q96EP0 695-1072 limits assumed): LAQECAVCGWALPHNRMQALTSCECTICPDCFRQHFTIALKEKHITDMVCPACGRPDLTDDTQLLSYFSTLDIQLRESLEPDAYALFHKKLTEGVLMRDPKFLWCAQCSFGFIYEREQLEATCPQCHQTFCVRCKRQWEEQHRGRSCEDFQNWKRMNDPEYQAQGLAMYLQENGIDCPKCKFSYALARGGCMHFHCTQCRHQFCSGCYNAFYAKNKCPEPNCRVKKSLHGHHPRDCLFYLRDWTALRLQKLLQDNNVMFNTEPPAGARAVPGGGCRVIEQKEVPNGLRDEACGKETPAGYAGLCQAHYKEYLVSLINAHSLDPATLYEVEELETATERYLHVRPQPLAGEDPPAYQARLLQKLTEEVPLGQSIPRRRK
Method in brief: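 HTRF read (ex 337 nm; em 665 and 620 nm) after a 2.5 h, 25° C. ubiquitination step started by adding E2 plus substrates. Before that, E. coli-expressed human HOIP fragment and E1 were incubated 1 h at 25° C. with compound at 100-0.005 μM, 1% DMSO final.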

[2] = test system: bladder carcinoma RT4 cell line; assay: TNF-α-induced cytotoxicity assay (CellTiter-Glo viability); format: cell-based; settings: Homo sapiens, RT-4, 72 h
Method in brief: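 RT4 bladder carcinoma cells, 1000 per well, stimulated with 1.25 ng/mL TNFα together with compound for 72 h at 37° C., 5% CO2. Viability read by CellTiter-Glo luminescence, proportional to cellular ATP, as a measure of HOIP-dependent cytotoxicity.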

Row | IC50 (NF-κB signaling pathway) [µM] | IC50 [1] [µM] | Compound | IC50 [2] [µM]
1 | ≤ 100 | ≤ 1 | O=C(NC/C=C/S(=O)(=O)c1ccccc1)c1cc2c([nH]c1=O)CCN(C(=O)C1CC1)C2 [Example 109, N-[(2E)-3-(benzenesulfonyl)prop-2-en-1-yl]-6-cyclopropanecarbonyl-2-oxo-1,2,5,6,7,8-hexahydro-1,6-naphthyridine-3-carboxamide] | ≤ 100
2 | ≤ 10 | ≤ 1 | O=C(NC/C=C/S(=O)(=O)c1ccccc1)c1cc2c([nH]c1=O)CCN(C(=O)C13CCC(CC1)C3)C2 [Example 110, N-[(2E)-3-(benzenesulfonyl)prop-2-en-1-yl]-6-{bicyclo[2.2.1]heptane-1-carbonyl}-2-oxo-1,2,5,6,7,8-hexahydro-1,6-naphthyridine-3-carboxamide] | ≤ 10
3 | ≤ 10 | ≤ 1 | O=C(NC/C=C/S(=O)(=O)c1ccccc1)c1cc2c([nH]c1=O)CCN(C(=O)c1cnn(-c3ccccc3)n1)C2 [Example 112, N-[(2E)-3-(benzenesulfonyl)prop-2-en-1-yl]-2-oxo-6-(2-phenyl-2H-1,2,3-triazole-4-carbonyl)-1,2,5,6,7,8-hexahydro-1,6-naphthyridine-3-carboxamide] | ≤ 10
4 | ≤ 100 | ≤ 1 | O=C(NC/C=C/S(=O)(=O)c1ccccc1)c1cc2c([nH]c1=O)CCN(C(=O)C1CCOC1)C2 (stereo not drawn) [Example 113, N-[(2E)-3-(benzenesulfonyl)prop-2-en-1-yl]-2-oxo-6-(oxolane-3-carbonyl)-1,2,5,6,7,8-hexahydro-1,6-naphthyridine-3-carboxamide] | ≤ 100
5 | ≤ 10 | ≤ 1 | CC12CC(C(=O)N3CCc4[nH]c(=O)c(C(=O)NC/C=C/S(=O)(=O)c5ccccc5)cc4C3)(C1)C2 [Example 114, N-[(2E)-3-(benzenesulfonyl)prop-2-en-1-yl]-6-{3-methylbicyclo[1.1.1]pentane-1-carbonyl}-2-oxo-1,2,5,6,7,8-hexahydro-1,6-naphthyridine-3-carboxamide] | ≤ 100
6 | ≤ 100 | ≤ 1 | CC1(C(=O)N2CCc3[nH]c(=O)c(C(=O)NC/C=C/S(=O)(=O)c4ccccc4)cc3C2)CCC1 [Example 115, N-[(2E)-3-(benzenesulfonyl)prop-2-en-1-yl]-6-(1-methylcyclobutanecarbonyl)-2-oxo-1,2,5,6,7,8-hexahydro-1,6-naphthyridine-3-carboxamide] | ≤ 100
7 | ≤ 10 | ≤ 0.1 | O=C(NC/C=C/S(=O)(=O)c1ccccc1)c1cc2c([nH]c1=O)CCN(C(=O)c1nc(C3CC3)cs1)C2 [Example 116, N-[(2E)-3-(benzenesulfonyl)prop-2-en-1-yl]-6-(4-cyclopropyl-1,3-thiazole-2-carbonyl)-2-oxo-1,2,5,6,7,8-hexahydro-1,6-naphthyridine-3-carboxamide] | ≤ 10
8 | ≤ 100 | ≤ 1 | O=C(NC/C=C/S(=O)(=O)c1ccccc1)c1cc2c([nH]c1=O)CCN(C(=O)CC1CC1)C2 [Example 117, N-[(2E)-3-(benzenesulfonyl)prop-2-en-1-yl]-6-(2-cyclopropylacetyl)-2-oxo-1,2,5,6,7,8-hexahydro-1,6-naphthyridine-3-carboxamide] | ≤ 100
9 | ≤ 1 | ≤ 0.1 | CC(C)COC(=O)N1CCc2[nH]c(=O)c(C(=O)NC/C=C/S(=O)(=O)c3ccccc3)cc2C1 [Example 119, 2-methylpropyl 3-{[(2E)-3-(benzenesulfonyl)prop-2-en-1-yl]carbamoyl}-2-oxo-1,2,5,6,7,8-hexahydro-1,6-naphthyridine-6-carboxylate] | ≤ 1
10 | ≤ 10 | ≤ 1 | CC(C)(C)CC(=O)N1CCc2[nH]c(=O)c(C(=O)NC/C=C/S(=O)(=O)c3ccccc3)cc2C1 [Example 120, N-[(2E)-3-(benzenesulfonyl)prop-2-en-1-yl]-6-(3,3-dimethylbutanoyl)-2-oxo-1,2,5,6,7,8-hexahydro-1,6-naphthyridine-3-carboxamide] | ≤ 10
11 | ≤ 1 | ≤ 0.1 | Cn1ncc2c(CN3CCc4[nH]c(=O)c(C(=O)NC/C=C/S(=O)(=O)c5ccccc5)cc4C3)cccc21 [Example 121, N-[(2E)-3-(benzenesulfonyl)prop-2-en-1-yl]-6-[(1-methyl-1H-indazol-4-yl)methyl]-2-oxo-1,2,5,6,7,8-hexahydro-1,6-naphthyridine-3-carboxamide] | ≤ 10
12 | ≤ 1 | ≤ 1 | O=C(NC/C=C/S(=O)(=O)c1ccccc1)c1cc2c([nH]c1=O)CCN(C(=O)OCCc1ccc(Cl)cc1)C2 [Example 122, 2-(4-chlorophenyl)ethyl 3-{[(2E)-3-(benzenesulfonyl)prop-2-en-1-yl]carbamoyl}-2-oxo-1,2,5,6,7,8-hexahydro-1,6-naphthyridine-6-carboxylate] | ≤ 1
13 | ≤ 100 | ≤ 1 | O=C(NC/C=C/S(=O)(=O)c1ccccc1)c1cc2c([nH]c1=O)CCN(Cc1cccnn1)C2 [Example 123, N-[(2E)-3-(benzenesulfonyl)prop-2-en-1-yl]-2-oxo-6-[(pyridazin-3-yl)methyl]-1,2,5,6,7,8-hexahydro-1,6-naphthyridine-3-carboxamide] | ≤ 100
14 | ≤ 10 | ≤ 1 | O=C(NC/C=C/S(=O)(=O)c1ccccc1)c1cc2c([nH]c1=O)CCN(C(=O)C1CC1c1ccccc1)C2 (stereo not drawn) [Example 125, N-[(2E)-3-(benzenesulfonyl)prop-2-en-1-yl]-2-oxo-6-(2-phenylcyclopropanecarbonyl)-1,2,5,6,7,8-hexahydro-1,6-naphthyridine-3-carboxamide] | ≤ 10
15 | ≤ 1 | ≤ 0.1 | O=C(NC/C=C/S(=O)(=O)c1ccc(Cl)cc1Cl)c1cc(-c2ccccc2)c[nH]c1=O [Example 126, N-[(2E)-3-(2,4-dichlorobenzenesulfonyl)prop-2-en-1-yl]-2-oxo-5-phenyl-1,2-dihydropyridine-3-carboxamide] | ≤ 10
16 | ≤ 1 | ≤ 1 | O=C(NC/C=C/S(=O)(=O)c1ccc(F)cc1F)c1cc(-c2ccccc2)c[nH]c1=O [Example 127, N-[(2E)-3-(2,4-difluorobenzenesulfonyl)prop-2-en-1-yl]-2-oxo-5-phenyl-1,2-dihydropyridine-3-carboxamide] | ≤ 10
17 | ≤ 10 | ≤ 1 | O=C(NC/C=C/S(=O)(=O)c1ccc(F)cc1Cl)c1cc(-c2ccccc2)c[nH]c1=O [Example 128, N-[(2E)-3-(2-chloro-4-fluorobenzenesulfonyl)prop-2-en-1-yl]-2-oxo-5-phenyl-1,2-dihydropyridine-3-carboxamide] | ≤ 10
18 | ≤ 1 | ≤ 0.1 | N=S(=O)(/C=C/CNC(=O)c1cc2c([nH]c1=O)CCCC2)c1ccc(Cl)cc1 (stereo not drawn) [Example 131, N-[(2E)-3-[(4-chlorophenyl)(imino)oxo-λ^6-sulfanyl]prop-2-en-1-yl]-2-oxo-1,2,5,6,7,8-hexahydroquinoline-3-carboxamide] | ≤ 1
19 | ≤ 1 | ≤ 1 | N=S(=O)(/C=C/CNC(=O)c1cc2c([nH]c1=O)CCCC2)c1ccccc1F (stereo not drawn) [Example 132, N-[(2E)-3-[(2-fluorophenyl)(imino)oxo-λ^6-sulfanyl]prop-2-en-1-yl]-2-oxo-1,2,5,6,7,8-hexahydroquinoline-3-carboxamide] | ≤ 10
